Results taken from patent publication US7960377B2 (priority 2008, dated 2011).

How the values were obtained:
rat CB2 receptor = molecular target: T1, rat CB2 receptor (Rattus norvegicus, UniProt Q9QZN9); assay: cell-based; type: cell-based
T1 sequence (Q9QZN9 1-360): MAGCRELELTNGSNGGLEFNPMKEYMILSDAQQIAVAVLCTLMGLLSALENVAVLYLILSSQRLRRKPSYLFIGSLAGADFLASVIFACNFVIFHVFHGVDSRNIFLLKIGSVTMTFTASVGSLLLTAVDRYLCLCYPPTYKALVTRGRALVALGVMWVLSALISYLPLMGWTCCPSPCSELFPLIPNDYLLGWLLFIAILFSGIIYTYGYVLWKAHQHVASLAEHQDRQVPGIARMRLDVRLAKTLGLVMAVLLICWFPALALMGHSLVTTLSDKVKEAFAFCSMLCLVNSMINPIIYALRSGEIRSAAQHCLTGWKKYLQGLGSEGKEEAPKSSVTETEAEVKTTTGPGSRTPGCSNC

human CB1 receptor = human CB1 receptor (Homo sapiens, UniProt P21554); assay: cell-based; conditions: for inverse agonist mark, human CB1 receptor: asterisk at the compound number
human CB1 receptor, sequence (P21554 whole entry): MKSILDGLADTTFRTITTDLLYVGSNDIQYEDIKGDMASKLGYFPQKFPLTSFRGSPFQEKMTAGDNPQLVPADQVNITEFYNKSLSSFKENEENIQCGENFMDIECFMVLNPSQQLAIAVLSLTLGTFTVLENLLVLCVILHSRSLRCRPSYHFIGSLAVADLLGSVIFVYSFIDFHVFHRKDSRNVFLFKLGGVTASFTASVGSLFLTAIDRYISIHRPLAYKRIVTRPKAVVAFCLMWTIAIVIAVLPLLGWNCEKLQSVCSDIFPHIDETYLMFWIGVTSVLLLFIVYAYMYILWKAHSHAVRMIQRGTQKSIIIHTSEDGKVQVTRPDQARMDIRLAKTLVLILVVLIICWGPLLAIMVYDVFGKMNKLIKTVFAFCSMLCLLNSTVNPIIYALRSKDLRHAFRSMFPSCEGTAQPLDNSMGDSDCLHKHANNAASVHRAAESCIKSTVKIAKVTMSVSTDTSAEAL

SMILES | EC50 (human CB1 receptor) | also measured
CC(C)(C)NC(=O)c1cnc2c(c1)N(S(=O)(=O)N1CCCC1)CCO2 [Example 148, N-tert-butyl-1-(pyrrolidin-1-ylsulfonyl)-2,3-dihydro-1H-pyrido[2,3-b][1,4]oxazine-7-carboxamide] |  | EC50 (rat CB2 receptor): ≤ 0.03 µM
O=C(c1cnc2c(c1)N(S(=O)(=O)c1ccc(Cl)c(Cl)c1)CCO2)N1CCC(F)(F)C1 [Example 126, (1-(3,4-dichlorophenyl-sulfonyl)-2,3-dihydro-1H-pyrido[2,3-b][1,4]oxazin-7-yl)(3,3-difluoro-pyrrolidin-1-yl)methanone] | > 30 µM | 
O=C(c1cnc2c(c1)N(S(=O)(=O)c1ccc(C(F)(F)F)cc1)CCO2)N1CCCCC1 [Example 49, piperidin-1-yl(1-(4-(trifluoromethyl)phenylsulf-onyl)-2,3-dihydro-1H-pyrido[2,3-b][1,4]oxazin-7-yl)methanone] | > 30 µM | 
O=C(c1cnc2c(c1)N(S(=O)(=O)c1ccc(C(F)(F)F)cc1)CCO2)N1CCCCC1CN1CCCC1 (racemic) [Example 75, +/− (2-(pyrrolidin-1-ylmethyl)piperidin-1-yl)(1-(4-(trifluoromethyl)-phenylsulfonyl)-2,3-dihydro-1H-pyrido[2,3-b][1,4]oxazin-7-yl)-methanone] | > 30 µM | 
CC(C)(N)CNC(=O)c1cnc2c(c1)N(S(=O)(=O)c1ccc(C(F)(F)F)cc1)CCO2 [Example 47, N-(2-amino-2-methylpropyl)-1-(4-(trifluoromethyl)phenylsulf-onyl)-2,3-dihydro-1H-pyrido[2,3-b][1,4]oxazine-7-carboxamide] | > 30 µM | 
CC(C)(C)NC(=O)c1cnc2c(c1)N(S(=O)(=O)c1ccc(F)cc1Cl)CCO2 [Example 57, N-tert-butyl-1-(2-chloro-4-fluorophenylsulfonyl)-2,3-dihydro-1H-pyrido[2,3-b][1,4]oxazine-7-carboxamide] | > 30 µM | 
CN(C)S(=O)(=O)N1CCOc2ncc(C(=O)NC(C)(C)CO)cc21 [Example 144, 1-(N,N-dimethyl-sulfamoyl)-N-(1-hydroxy-2-methylpropan-2-yl)-2,3-dihydro-1H-pyrido[2,3-b][1,4]oxazine-7-carboxamide] | > 30 µM | 
CCN(CC)C(=O)c1cnc2c(c1)N(S(=O)(=O)c1ccc(F)cc1)CCO2 [Example 13, N,N-diethyl-1-(4-fluorophenylsulfonyl)2,3-dihydro-1H-pyrido[2,3-b][1,4]oxazine-7-carboxamide] | > 30 µM | 
O=C(NC1CCCC1)c1cnc2c(c1)N(Cc1ccc(F)cc1)C(=O)CO2 [Example 221, N-cyclopentyl-1-(4-fluorobenzyl)-2-oxo-2,3-dihydro-1H-pyrido[2,3-b] [1,4]oxazine-7-carboxamide] | > 30 µM | 
CC1CN(C(=O)c2cnc3c(c2)N(S(=O)(=O)c2ccc(C(F)(F)F)cc2)CCO3)CC(C)O1 (stereo not drawn) [Example 198, (2,6-dimethylmorpholino)(1-(4-(trifluoromethyl)phenylsulf-onyl)-2,3-dihydro-1H-pyrido[2,3-b][1,4]oxazin-7-yl)methanone] | > 30 µM | 
Cc1cccc(S(=O)(=O)N2CCOc3ncc(C(=O)NC(C)(C)C)cc32)c1 [Example 86, N-tert-butyl-1-(m-tolylsulfonyl)-2,3-dihydro-1H-pyrido[2,3-b][1,4]oxazine-7-carboxamide] | > 30 µM | 
Cc1cc(F)ccc1S(=O)(=O)N1CCOc2ncc(C(=O)NC(C)(C)C)cc21 [Example 56, N-tert-butyl-1-(4-fluoro-2-methylphenylsulfonyl)-2,3-dihydro-1H-pyrido[2,3-b][1,4]oxazine-7-carboxamide] | > 30 µM | 
CN1CCN(C(=O)c2cnc3c(c2)N(S(=O)(=O)c2ccc(Cl)c(Cl)c2)CCO3)CC1 [Example 123, (1-(3,4-dichlorophenyl-sulfonyl)-2,3-dihydro-1H-pyrido [2,3-b][1,4]oxazin-7-yl)(4-methylpiperazin-1-yl)methanone] | > 30 µM | 
COc1ccc(S(=O)(=O)N2CCOc3ncc(C(=O)NCC(C)(C)O)cc32)c(F)c1 [Example 107] | > 30 µM | 
CCCS(=O)(=O)N1CCOc2ncc(C(=O)NC(C)(C)C)cc21 [Example 79, N-tert-butyl-1-(propylsulfonyl)-2,3-dihydro-1H-pyrido[2,3-b][1,4]oxazine-7-carboxamide] | > 30 µM | 
CC(C)(C)N(CCC#N)C(=O)c1cnc2c(c1)N(S(=O)(=O)c1ccc(C(F)(F)F)cc1)CCO2 [Example 41, N-tert-butyl-N-(2-cyanoethyl)-1-(4-(trifluoromethyl)phenylsulf-onyl)-2,3-dihydro-1H-pyrido[2,3-b][1,4]oxazine-7-carboxamide] | > 30 µM | 
CC(C)(C)N(CCO)C(=O)c1cnc2c(c1)N(S(=O)(=O)c1ccc(C(F)(F)F)cc1)CCO2 [Example 44, N-tert-butyl-N-(2-hydroxyethyl)-1-(4-(trifluoromethyl)phenylsulf-onyl)-2,3-dihydro-1H-pyrido[2,3-b][1,4]oxazine-7-carboxamide] | > 30 µM | 

SMILES | EC50 (human CB1 receptor) | also measured
COc1ccc(S(=O)(=O)N2CCOc3ncc(C(=O)NCC(C)(C)O)cc32)cc1F [Example 105] | > 30 µM | 
O=C(c1cnc2c(c1)N(S(=O)(=O)c1ccc(Cl)c(Cl)c1)CCO2)N1CCC[C@@H]1CO [Example 122, (R)-(1-(3,4-dichlorophenyl-sulfonyl)-2,3-dihydro-1H-pyrido[2,3-b][1,4]oxazin-7-yl)(2-(hydroxymethyl)pyrrolidin-1-yl)methanone] | > 30 µM | 
O=C(c1cnc2c(c1)N(S(=O)(=O)c1ccc(Cl)c(Cl)c1)CCO2)N1CC(F)(F)C1 [Example 128, (1-(3,4-dichlorophenyl-sulfonyl)-2,3-dihydro-1H-pyrido[2,3-b][1,4]oxazin-7-yl)(3,3-difluoroazetidin-1-yl)methanone] | > 30 µM | 
CC(C)(CN1CCCC1)NC(=O)c1cnc2c(c1)N(S(=O)(=O)c1ccc(C(F)(F)F)cc1)CCO2 [Example 37, N-(2-methyl-1-(pyrrolidin-1-yl)propan-2-yl)-1-(4-(trifluoromethyl)phenylsulf-onyl)-2,3-dihydro-1H-pyrido[2,3-b][1,4]oxazine-7-carboxamide] | > 30 µM | 
CC(C)(CN1CCOCC1)NC(=O)c1cnc2c(c1)N(S(=O)(=O)N1CCCCC1)CCO2 [Example 147, N-(2-methyl-1-morpholinopropan-2-yl)-1-(piperidin-1-ylsulfonyl)-2,3-dihydro-1H-pyrido[2,3-b][1,4]oxazine-7-carboxamide] | > 30 µM | 
CC(C)(C)NC(=O)c1cnc2c(c1)N(S(=O)(=O)Cc1ccc(Cl)cc1)CCO2 [Example 61, N-tert-butyl-1-(4-chlorobenzylsulfonyl)-2,3-dihydro-1H-pyrido[2,3-b][1,4]oxazine-7-carboxamide] |  | inverse agonist mark, human CB1 receptor (human CB1 receptor): 2, 3, 5, 7, 8, 10, 39, 58, 61*, 69, 93*, 101, 102, 109, 110, 111, 112,
COC1CN(C(=O)c2cnc3c(c2)N(S(=O)(=O)c2ccc(Cl)c(Cl)c2)CCO3)C1 [Example 129, (1-(3,4-dichlorophenyl-sulfonyl)-2,3-dihydro-1H-pyrido[2,3-b][1,4]oxazin-7-yl)(3-methoxyazetidin-1-yl)methanone] | > 30 µM | 
O=C(NCCO)c1cnc2c(c1)N(S(=O)(=O)c1ccc(Cl)c(Cl)c1)CCO2 [Example 114, 1-(3,4-dichlorophenyl-sulfonyl)-N-(2-hydroxyethyl)-2,3-dihydro-1H-pyrido[2,3-b][1,4]oxazine-7-carboxamide] | > 30 µM | 
O=C(OCC1CCCCN1)c1cnc2c(c1)N(S(=O)(=O)c1ccc(C(F)(F)F)cc1)CCO2 (stereo not drawn) [Example 202, piperidin-2-ylmethyl 1-(4-(trifluoromethyl)phenylsulfonyl)-2,3-dihydro-1H-pyrido[2,3-b][1,4]oxazine-7-carboxylate] | > 30 µM | 
CC(C)CNS(=O)(=O)N1CCOc2ncc(C(=O)NC(C)(C)CO)cc21 [Example 181, N-(1-hydroxy-2-methylpropan-2-yl)-1-(N-isobutylsulfamoyl)-2,3-dihydro-1H-pyrido[2,3-b][1,4]oxazine-7-carboxamide] | > 30 µM | 
COc1ccc(S(=O)(=O)N2CCOc3ncc(C(=O)NC(C)(C)CO)cc32)cc1Cl [Example 100, 1-(3-chloro-4-methoxyphenylsulfonyl)-N-(1-hydroxy-2-methylpropan-2-yl)-2,3-dihydro-1H-pyrido[2,3-b][1,4]oxazine-7-carboxamide] | > 30 µM | 
O=C(c1cnc2c(c1)N(S(=O)(=O)c1ccc(Cl)c(Cl)c1)CCO2)N1CCC1 [Example 130, azetidin-1-yl(1-(3,4-dichlorophenylsulfonyl)-2,3-dihydro-1H-pyrido[2,3-b][1,4]oxazin-7-yl)methanone] |  | inverse agonist mark, human CB1 receptor (human CB1 receptor): 130*, 136, 141, 142, 149, 156, 157, 163, 164, 168, 173, 183, 195,
O=C(c1cnc2c(c1)N(S(=O)(=O)c1ccc(C(F)(F)F)cc1)CCO2)N1CCCCC1CO (racemic) [Example 72, +/− (2-(hydroxymethyl)piperidin-1-yl)(1-(4-(trifluoro-methyl)phenylsulfonyl)-2,3-dihydro-1H-pyrido [2,3-b][1,4]oxazin-7-yl) methanone] | > 30 µM | 
CNCCOC(=O)c1cnc2c(c1)N(S(=O)(=O)c1ccc(Cl)c(Cl)c1)CCO2 [Example 203, 2-(methylamino)ethyl 1-(3,4-dichlorophenylsulfonyl)-2,3-dihydro-1H-pyrido[2,3-b][1,4]oxazine-7-carboxylate] | > 30 µM | 
CCC(C)(C)NC(=O)c1cnc2c(c1)N(S(=O)(=O)N1CCN(C)CC1)CCO2 [Example 175, 1-(4-methylpiperazin-1-ylsulfonyl)-N-tert-pentyl-2,3-dihydro-1H-pyrido[2,3-b][1,4]oxazine-7-carboxamide] | > 30 µM | 
CC(C)(C)NC(=O)c1cnc2c(c1)N(S(=O)(=O)Cc1ccccc1)CCO2 [Example 60, 1-(benzylsulfonyl)-N-tert-butyl-2,3-dihydro-1H-pyrido[2,3-b][1,4]oxazine-7-carboxamide] | > 30 µM | 
